Laboratory results as given in patent US20080057010A1, “METHOD FOR SKIN CARE” (NULIV SCIENCE LTD., priority 2006, published 2008).

How the values were obtained:
[1] = tested on: HaCaT cells; assay: Glucosamine uptake assay in HaCaT cells; type: cell-based, human; details: 0.1 μM
Experimental: In glucosamine uptake test, HaCaT cells were seeded into 24-well plate at a density of 3×10^4 cells/well and cultured for 24 h. The cells were then treated in the absence (solvent control) or presence of various concentrations of astragalosides for another 48 h. The treated cells were then washed twice with PBS and incubated in glucose and serum free medium (GSFM). After 2 h, the cells were replaced with fresh GSFM containing 0.2 μCi of [^14C]-Glucosamine (American Radiolabelled Chemicals Inc, ARC, St. Louis, Mo., USA). At the designated time interval, the cells were washed twice with GSFM containing cold glucosamine and then lysed in 200 μL 2% SDS. Cell lysates were centrifuged at 15000 g for 15 min. Intracellular uptaken glucosamine was determined by transferring 10 μL of the cell lysate to filter-bottemed UniFilter plates (Perkim-Elmer) and counted. Protein concentration of the samples was measured using the BCA protein assay kit as described above. Glucosamine accumulated in the cells was calculated and normalized to protein concentration and uptake rate was expressed as counts per minute per microgram of cell protein (cpm/min/μg).

[2] = tested on: collagen III; assay: Collagen III expression and secretion in human HDF cells (western blot); type: cell-based; details: relative to 0 = 1.00
Experimental: (§1) Primary human dermal fibroblasts cells (HDF) were purchased from Cascade Biologics (Portland, Oreg., USA) and cultured in medium 106 supplemented with 10% fetal bovine serum (FBS), 100 IU/mL penicillin, 100 μg/mL of streptomycin. The cells from passages 4 to 10 were used for this study. Culture medium was replaced every other day. After confluence, the cells were subcultured following trypsinization. For subcultures cells were harvested after brief treatment with 0.1% trypsin/EDTA solution and seeded at a dilution of 1:10. The cells were seeded at 1×10^5 cells in 6-well culture plate for 24 h before treated with astragalosides or crude extracts, such as butanol fraction and water insoluble fraction of Astragalus membranaceus for the indicated time periods. Control cultures were maintained in medium supplemented with vehicle (dimethyl sulfoxide, DMSO, 0.1%). No growth and differentiation effects of DMSO were observed under these culture conditions.
(§2) The cells were treated with pure compounds such as astragaloside I (AS 1), astragaloside II (AS2), astragaloside III (AS3), astragaloside IV (AS4), astragaloside VI (AS6), isoastragaloside I (isoAS1), isoastragaloside II (isoAS2), and cycloastragenol 6-O-β-D-glucopyranose (AA) at concentrations of 0-10 μM. Alternatively, the cells were also treated with the crude extracts, such as butanol fraction and water insoluble fraction of Astragalus membranaceus at concentrations of 0, 1, 10, and 40 μg/mL. The cells were treated with the indicated compounds or the extracts for 24 h before harvested for analysis of collagen I and III expressed in the whole cell extract or secreted into the culture medium.
(§3) Western blot analysis was carried out on both of cultured medium and cell lysates. The cells were plated on 6-cm dishes at a density of 1×10^6 cells/dish for 24 h prior to treatment with indicated concentrations of astragalus triterpenoids as indicated for another 48 h. The conditioned culture mediums were then centrifuged, 2-fold concentrated and collected for assay of collagens and MMPs secreted into the culture medium. The cells were washed and lysed in 0.2 mL of lysis buffer (1% NP-40, 50 mM Tris-HCl, pH 7.4, 180 mM NaCl, 1 mM EDTA, 1 mM PMSF, 1 mM NaF, 10 mM Na3VO4) for 30 min at 4° C. After centrifuging at 17500 g for 15 min, the supernatants of cell lysate were also collected. Protein concentration of the samples were measured using the bicinchoninic acid (BCA) protein assay kit according to the manufacturer's protocol (Pierce, Rockford, Ill., USA). Equal amount of protein samples of concentrated conditioned medium (100 μg) or cell lysate supernatants (50 μg) were mixed with an appropriate volume of 4×SDS sampling buffer and separated by 8% SDS-PAGE gel. The protein bands separated in the SDS-PAGE gel were blotted onto a polyvinylidene fluoride (PVDF) membrane. The blotted PVDF membrane was washed twice and blocked in freshly prepared Tris-buffered saline (TBS) containing 0.1% Tween-20 and 7% skim milk (TBST) for 2 h at room temperature. The PVDF membrane was then incubated with either antibodies against collagen I and III or the housekeeping protein α-tubulin (Santa Cruz Biotechnology, Santa Cruz, Calif.) for 18 h at 4° C. Horseradish peroxidase-conjugated anti-goat antibody was used as secondary antibody. Signals were visualized by an enhanced chemiluminescence kit (Clonetech, Palo Alto, Calif., USA) followed by exposure to X-ray films.

[3] = tested on: collagen I; assay: Collagen I expression in human HaCaT cells (western blot); type: cell-based; details: relative to 0 μM = 1.00
Experimental: The Spontaneously transformed human keratinocyte cell lines HaCaT cells were grown at 37° C. in a humidified incubator under 5% CO2 and 95% air in culture medium such as Dulbecco Modified Eagle Medium (DMEM) supplemented with 10% Fetal Bovine Serum (FBS), 100 IU/mL penicillin, 100 μg/mL of streptomycin, 2 mM sodium pyruvate and 1% Non-Essential Amino Acids (NEAA). The culture medium was replaced every other day. After confluence, the cells were subcultured following trypsinization. For subcultures cells were harvested after brief treatment with 0.1% trypsin/ethylenediaminetetraacetic acid (EDTA) solution and seeded at a dilution of 1:10. Cells between passages 12 and 45 were used for studies. The cells were seeded and incubated for 24 h before treated with the astragalosides for 24 h. Control cultures were maintained in medium supplemented with vehicle (dimethyl sulfoxide (DMSO) 0.1%). No growth and differentiation effects of DMSO were observed under these culture conditions.
as §2, §3
Results shown represent the quantitated data from western blot analysis. […] The collagen I was also over-expressed in the human HaCaT cells treated with 40 μg/mL of astragaloside extract.

[4] = tested on: MMP-1; assay: Quantitative analysis of MMP-1 transcripts in HDF cells (qRT-PCR); type: cell-based, human; details: 0.1 μM, MMP-1 mRNA relative to 0 = 1.00
Experimental: Relative levels of MMP-1 expression in HDF cells were determined by qRT-PCR. Preparation of total RNA and cDNA were carried out as described in previous sections. qRT-PCR was performed using the Applied Biosystem 7300 system and pre-developed Taqman Gene Expression Assays (Applied Biosystems, Foster City, Calif., USA). The reaction was performed as described in previous sections except that primer mix for human MMP-1 (assay ID HS00233958_m1, Applied Biosystems) and GAPDH (assay ID Hs99999905_m1, Applied Biosystems) were used.
Results shown in Tables 6A and 6B represent the quantitated data from zymography analysis of MMP-2 protein in HaCaT cells and qRT-PCR for MMP-1 in HDF cells. The concentrations used were 0, 0.01. 0.1, 1 μM (if not indicated otherwise) for pure compounds; and were 0, 1, 10, 40 μg/mL for crude extract (if not indicated otherwise). The cells were treated with the indicated compounds for 24 h before harvested for analysis of Pro-MMP-2 or activated MMP-2 in whole cell extract. Fifty micrograms of the cell extract samples were used for electrophoresis.

[5] = tested on: collagen I; assay: Collagen I expression and secretion in human HDF cells (western blot); type: cell-based; details: relative to 0 = 1.00
Experimental: as §1, §2, §3
The collagen expression in the human HDF cells was also determined. […] And Collage I was over-expressed in the cells treated with various doses (1, 10, 40 μg/mL) of the crude extracts, such as butanol fraction and water insoluble fraction of Astragalus membranaceus.

[6] = tested on: MMP-1; assay: UV-B-induced MMP-1 expression in human HDF cells (western blot, FIG. 1); type: cell-based; details: 50 mJ/cm^2 UV-B, positive control (FIG. 1 lane 3)
Experimental: To characterize the effects of astragalosides on the expression level of MMPs in human cells, HDF or HaCaT cells were first treated with or without various concentrations of astragalosides for 24 h. The cells were washed with phosphate-buffered saline (PBS) and irradiated with 10-100 mJ/cm^2 of UV-B (312 nm) for HDF-1 and HaCaT cells, respectively, using the UV light irradiator (UVItec unlimited, Cambridge, England). The cells were then washed and incubated with serum free medium for 24 h before harvested for analysis. The effect of astragalosides on MMPs levels was analyzed by western blot and the activity of MMPs was analyzed by zymography. All trans retinoic acid (atRA) was used as a positive control to suppress the UV-B-induced MMPs activation and expression.
Human HDF cells were treated with the indicated concentrations of water insoluble fraction of Astragalus membranaceus for 24 h. The cells were then irradiated with 50 mJ/cm^2 of UV-B. After 24 h, the cells were harvested for western blot analysis. […] Thus, the water insoluble fraction of Astragalus membranaceus is a potential agent for the prevention and treatment of skin aging as a result of UV irradiation.

SMILES: CC(C)(O)C1CC[C@](C)(C2[C@@H](O)C[C@@]3(C)C4C[C@H](OC5OC(CO)C(O)C(O)C5O)C5C(C)(C)[C@@H](O)CCC56CC46CC[C@]23C)O1 (stereo partly drawn) [AA, cycloastragenol 6-O-β-D-glucopyranose]
- Uptake rate (glucosamine) ([1]; 48 h treatment): 0.9445 ± 0.0823 CPM/μg protein
- Percentage (%) of control glucosamine uptake ([1]; relative to control): 114.59%
- Collagen III in medium ([2]; 0.01 μM): 1.03
- Collagen III in medium ([2]; 0.1 μM): 1.62
- Collagen III in medium ([2]; 1 μM): 1.34
- Collagen I in cell ([3]; 0.01 μM): 2.57
- Collagen I in cell ([3]; 0.1 μM): 3.34
- Collagen I in cell ([3]; 1 μM): 3.47
- MMP-1 Q-PCR [4]: 0.76
- Collagen I in cell ([5]; 0.01 μM): 1.04
- Collagen I in medium ([5]; 0.01 μM): 0.97
- Collagen I in cell ([5]; 0.1 μM): 1.85
- Collagen I in medium ([5]; 0.1 μM): 0.95
- Collagen I in cell ([5]; 1 μM): 1.17
- Collagen I in medium ([5]; 1 μM): 1.52

SMILES: CC1=C(/C=C/C(C)=C/C=C/C(C)=C/C(=O)O)C(C)(C)CCC1 [atRA, All trans retinoic acid]
- UV-mediated induction of MMP-1 expression [6]: blocked
